In patent US20170281714A1, “METHOD OF TREATMENT USING L[…] G[…] COOPERATE WITH IL-10 TO MODULATE INFLAMMATORY RESPONSE TRIGGERED IN HIV+ AND TB IMMUNE-C[…] PATIENTS” (Your Energy Systems, LLC, priority 2014, published 2017):

Tests used:
[1] = tested on: IL-10; experiment: IL-10 secretion by macrophages infected ex vivo with M. Tb H37Rv (FIG. 3; healthy individuals and Type 2 diabetes mellitus); type: cell-based, human; conditions: NAC supplied in millimolar amounts
Excerpt: FIG. 3 is two bar graphs using various substances or compositions for raising glutathione in macrophages and how macrophages respond to these various methods. On the left is a control graph for healthy individuals. On the right is a graph for individuals affected with Type 2 diabetes mellitus.
The right graph of FIG. 3 depicts the response of macrophages from individuals with Type 2 diabetes mellitus ex vivo, which have been infected with M. Tb strain H37Rv.
Prior to the current invention, no method of lowering IL-10 in individuals with type 1 or type 2 diabetes mellitus has been proposed. Type 1 diabetes is an immune disorder in which the body's immune cells (white blood cells) attack and destroy insulin-producing beta cells in the pancreas. As a result, the body cannot produce insulin and glucose stays and builds up in the blood, where it damages all the organ systems. […] Similar to type 1 diabetes, type 2 causes a build-up of glucose in the blood which damages the body's organ systems. One of the key complications of Type 2 diabetes is prolonged infection and inhibited response to infection and poor wound healing. This Type 2 form of the disease is commonly referred to as adult-onset diabetes. Cytokine levels, such as for IL-10, in plasma samples can be determined by sandwich enzyme linked immunosorbent assay (ELISA) using assay kits from eBioscience (kit named ELISA Ready-Set-Go). […]

[2] = tested on: Mycobacterium tuberculosis; conditions: NAC at 10 millimolar; cited from earlier work

**Q.** Which “IL-10 level from macrophages in cell culture” value [1] does the source give for `CC(=O)N[C@@H](CS)C(=O)O` [NAC, N-acetyl cysteine] here?
**A.** The value was “reduce to normal”.

**Q.** And the “M. tuberculosis CFU/ml in macrophages” value [2]?
**A.** The value was 8,000 CFU/ml.
